From PubChem BioAssay (NCI)
Several values for one entry are separate records, joined by “and”; a condition that tells them apart may be missing. Equal entries are not always repeated.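 Cultured in 96-well plates, cells were exposed to test compound for 48 hours across five concentrations. The concentration for 50% growth inhibition is given as GI50. At the TGI there is no net growth.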

Assays:
Experiment in all cases: inhibition of tumour cell growth, NCI panel, 48 h
ACHN renal = test system: ACHN renal
HCT-116 colon = test system: HCT-116 colon
MOLT-4 leukemia = test system: MOLT-4 leukemia
NCI-H23 lung = test system: NCI-H23 lung
NCI/ADR-RES ovarian = test system: NCI/ADR-RES ovarian
OVCAR-5 ovarian = test system: OVCAR-5 ovarian
SK-MEL-5 melanoma = test system: SK-MEL-5 melanoma
SNB-19 CNS = test system: SNB-19 CNS
UACC-257 melanoma = test system: UACC-257 melanoma
UACC-62 melanoma = test system: UACC-62 melanoma

Compound	GI50 (ACHN renal)	TGI (ACHN renal)	GI50 (HCT-116 colon)	TGI (HCT-116 colon)	GI50 (MOLT-4 leukemia)	TGI (MOLT-4 leukemia)	GI50 (NCI-H23 lung)	TGI (NCI-H23 lung)	GI50 (NCI/ADR-RES ovarian)	TGI (NCI/ADR-RES ovarian)	GI50 (OVCAR-5 ovarian)	TGI (OVCAR-5 ovarian)	GI50 (SK-MEL-5 melanoma)	TGI (SK-MEL-5 melanoma)	GI50 (SNB-19 CNS)	TGI (SNB-19 CNS)	GI50 (UACC-257 melanoma)	TGI (UACC-257 melanoma)	GI50 (UACC-62 melanoma)	TGI (UACC-62 melanoma)
COc1cc2c(cc1OCCCN1CCN(CCCOc3cc4c(cc3OC)C(=O)C3CCC[C@H]3C=N4)CC1)N=C[C@@H]1CCCC1C2=O (stereo partly specified)	55.7 µM	> 100 µM	12.1 µM	> 100 µM	0.313 µM	2.53 µM	5.42 µM	14.1 µM	> 100 µM	> 100 µM	4.84 µM	> 27.2 µM	2.2 µM	6.4 µM	23.7 µM	> 100 µM	13 µM	> 46.4 µM	6.49 µM	15.2 µM
Cn1cc(-c2csc(-c3cn(C)c4ncccc34)n2)c2ccccc21	0.899 µM	16.6 µM	0.354 µM	19 µM	0.613 µM	> 52.2 µM	0.752 µM	20.6 µM	0.135 µM	3.47 µM	0.876 µM	23.8 µM	0.286 µM	16.2 µM	0.574 µM	27 µM	13 µM	> 100 µM	0.325 µM	44.3 µM
Nc1nccc(C#Cc2cncnc2Nc2ccc(OCc3cccc(F)c3)c(Cl)c2)n1	4.2 µM	10.6 µM	3.48 µM	7.43 µM	5.69 µM	21.5 µM	4.22 µM	8.92 µM	6.6 µM	> 25 µM	5.45 µM	11.3 µM	3.51 µM	6.8 µM	4.79 µM	10 µM	3.92 µM	7.64 µM	4.09 µM	7.68 µM
C/C=C(\C)C(=O)O[C@@H]1C=CC(=O)O[C@H]1COC(=O)[C@H](C)O	6.16 µM	19 µM	3.39 µM	12.2 µM	7.31 µM	28.4 µM	18.4 µM	50.6 µM	14.6 µM	56.8 µM	15.3 µM	31.5 µM	12.6 µM	25.1 µM	19.8 µM	56 µM	13.4 µM	46.8 µM	12.4 µM	25.5 µM
C#CCSc1nnnn1-c1ccc(Br)c(C)c1	33.1 µM	> 100 µM	29.3 µM	> 100 µM	23.3 µM	> 100 µM	21.5 µM	88.6 µM	17.4 µM	72.7 µM	69.4 µM	> 100 µM	16.5 µM	33.9 µM	74 µM	> 100 µM	35.2 µM	> 100 µM	18.3 µM	91.2 µM
O=S(=O)(Nc1ccc2ccc3cccc4ccc1c2c34)c1ccccc1		> 100 µM		> 100 µM		> 100 µM		> 100 µM		> 100 µM		> 100 µM		> 100 µM		> 100 µM		> 100 µM		> 100 µM
C/C(=N\NC(=S)Nc1ccccc1)c1ccccn1	0.0335 µM	3.75 µM	< 0.01 µM	1.17 µM	< 0.0278 µM	16.9 µM	0.0191 µM	5.22 µM	0.0469 µM	4.58 µM	0.118 µM	10.9 µM	0.199 µM	1.56 µM	1.1 µM	16.4 µM	0.032 µM	0.384 µM	0.264 µM	2.96 µM
C=C(CNCCc1ccc(O)cc1)[C@@H]1CC[C@]2(CO)CC[C@]3(C)[C@H](CC[C@@H]4[C@@]5(C)CCC(NCCO)C(C)(C)[C@@H]5CC[C@]43C)[C@@H]12 (stereo partly specified)	1.79 µM	3.2 µM	0.351 µM	1.19 µM	0.657 µM	2.92 µM	1.78 µM	3.49 µM	2.09 µM	4.88 µM	1.67 µM	3.31 µM	1.73 µM	3.21 µM	1.63 µM	3.03 µM	1.86 µM	3.27 µM	1.79 µM	3.3 µM
Cn1cccc1C1CC(=O)N(CCC[Se]C#N)C1=O (stereo unspecified)	2.11 µM	4.4 µM	2.34 µM	6.27 µM	2.16 µM	7.43 µM	2.6 µM	7.88 µM	2.69 µM	7.85 µM	2.49 µM	6.51 µM	1.96 µM	4.05 µM	1.62 µM	3.08 µM	1.95 µM	4.73 µM	1.87 µM	3.91 µM
Cn1cc(-c2nonc2-c2cn(C)c3ccc(Br)cc23)c2ccccc21	4.29 µM	> 100 µM	4.3 µM	> 100 µM			4.72 µM	> 100 µM	3.19 µM	> 100 µM	7.05 µM	> 100 µM	3.37 µM	> 100 µM	5.33 µM	> 100 µM			3.37 µM	> 100 µM
CC1(C)OCC(C2OC(On3nnc4ccc(Cl)cc43)C3OC(C)(C)OC23)O1 (stereo unspecified)		> 100 µM		> 100 µM		> 100 µM		> 100 µM		> 100 µM		> 100 µM		> 100 µM		> 100 µM		> 100 µM		> 100 µM
COc1cccc(C2C3=C(COC3=O)N(CCO)c3cc4c(cc32)CCC4)c1 (stereo unspecified)	0.0622 µM	> 50 µM	0.0526 µM	0.692 µM	0.162 µM	1.94 µM	0.0604 µM	4.02 µM	0.0556 µM	0.23 µM	0.344 µM	> 50 µM	0.0204 µM	0.436 µM	0.0468 µM	0.321 µM	32.6 µM	> 50 µM	34.2 µM	> 50 µM
COC(=O)Oc1nn(C(=O)OC)c(=O)c2ccccc12 (tested in a mixture with another compound)		> 100 µM		> 100 µM		> 100 µM		> 100 µM		> 100 µM		> 100 µM		> 100 µM		> 100 µM		> 100 µM		> 100 µM
COc1ccc(C2=NN(c3ccc(S(N)(=O)=O)cc3)C(c3ccc(Cl)cc3)C2)c(O)c1 (stereo unspecified)	3.58 µM	50.6 µM	2.32 µM	8.63 µM	1.92 µM	5.07 µM	3.32 µM	13.7 µM	3.98 µM	21.1 µM	9.44 µM	29.3 µM	6.24 µM	19.1 µM	10.8 µM	65.1 µM	6.84 µM	42 µM	5.89 µM	19.7 µM
O=C1c2cccnc2-c2nc(-c3ccccc3)cc3c2c1nc1ccccc13	1.09 µM	8 µM	1.91 µM	7.2 µM	2.5 µM	14.8 µM	1.73 µM	7.48 µM	11.9 µM	32.7 µM	16.2 µM	30.8 µM	1.27 µM	3.88 µM	3.71 µM	20.1 µM	0.835 µM	8.08 µM	3.74 µM	9.01 µM
CC[C@]12C=CCN3CC[C@]4(C(=C(C(=O)OC)C1)Nc1ccccc14)[C@@H]32	2.07 µM	4.54 µM	3.16 µM	10.9 µM	3.16 µM	14.7 µM	4.37 µM	17.7 µM	6.39 µM	58.1 µM	6.55 µM	21.2 µM	4.87 µM	16.8 µM	10.7 µM	23.3 µM	5.06 µM	26.5 µM	2.89 µM	12 µM
COc1cc(-c2cn(-c3ccc(Cl)cc3)c(=O)n2-c2ccccc2)cc(OC)c1OC	34.8 µM	> 100 µM	45.8 µM	> 100 µM	59.6 µM	> 100 µM	> 100 µM	> 100 µM	> 92.9 µM	> 100 µM	> 100 µM	> 100 µM	25.3 µM	> 100 µM	44.7 µM	> 100 µM	> 82.6 µM	> 100 µM	32.5 µM	> 100 µM
COc1ccc2c(c1)C(=O)/C(=C/c1ccc(OCC(=O)c3ccc(Cl)cc3)cc1)O2	15.9 µM	30.5 µM	3.07 µM	13 µM	3.03 µM	12.8 µM	11.6 µM	31.7 µM	16.3 µM	41.8 µM	11.5 µM	23.9 µM	17.2 µM	59.3 µM	48.2 µM	> 100 µM	> 100 µM	> 100 µM	17.5 µM	> 100 µM
COC(=O)C1(C)CCc2c(ccc3ccccc23)C1=O (stereo unspecified)		> 100 µM		> 100 µM		> 100 µM		> 100 µM		> 100 µM		> 100 µM		35.9 µM		> 100 µM		55.2 µM		98.1 µM
c1ccc(COc2ccc(Nc3ncnc4ccc(-c5ccco5)cc34)cc2)cc1	6.75 µM	> 25 µM	4.93 µM	12.4 µM	11.7 µM	> 25 µM	5.54 µM	> 17.9 µM	7.97 µM	> 25 µM	4.57 µM	14.8 µM	2.96 µM	6.79 µM	12.7 µM	> 25 µM	7.85 µM	24.4 µM	5.75 µM	14.3 µM
Cc1ccc2c(c1)/C(=N\N=C/c1cn(C(C)C)c3ccccc13)C(=O)N2	2.95 µM	> 100 µM	1.09 µM	> 100 µM	0.252 µM	0.753 µM	4.56 µM	> 100 µM	73 µM	> 100 µM	35.1 µM	> 100 µM	4.57 µM	> 100 µM	7.18 µM	> 100 µM	5.05 µM	> 100 µM	2.69 µM	> 100 µM
CC1OC(OC2C(OC3CCC4(C)C(CCC5(C)C4CC=C4C6CC(C)(C)CCC6(CO)C(O)CC45C)C3(C)C)OC(C(=O)O)C(OC3OC(COC4OC(CO)C(O)C(O)C4O)C(O)C(O)C3O)C2O)C(O)C(O)C1O (stereo unspecified)	4.81 µM	16.8 µM	2.05 µM	9.21 µM	2.35 µM	8.42 µM	1.77 µM	4.67 µM	11.5 µM	23.6 µM	5.17 µM	16.7 µM	11.5 µM	22.2 µM	13.9 µM	28 µM	13.2 µM	26.3 µM	9.64 µM	20.6 µM
c1ccc(CNc2nc(Nc3ccc(-c4nc5ccccc5[nH]4)cc3)c3cn[nH]c3n2)cc1	2.29 µM	6.5 µM	1.74 µM	3.64 µM	2.43 µM	6.33 µM	2.28 µM	6.13 µM	2.22 µM	5.99 µM	2.52 µM	6.86 µM	1.74 µM	3.3 µM	4.27 µM	31.3 µM	1.61 µM	3.4 µM	2.13 µM	4.92 µM
O=C(O)Cc1ccccc1	> 1000 µM	> 2000 µM	> 1000 µM	> 1000 µM	> 1000 µM	> 1000 µM and 1260 µM	> 1000 µM	> 2000 µM	> 1000 µM	> 2000 µM	> 1000 µM	> 2000 µM	> 1000 µM	> 2000 µM	> 1000 µM	> 2000 µM	> 1000 µM	> 2000 µM	> 1000 µM	> 2000 µM
Oc1ccc(-c2nc(-c3ccc(F)cc3)c(-c3ccncc3)[nH]2)cc1	3.97 µM	> 100 µM	17.4 µM	53 µM	7.97 µM	32.5 µM	36.2 µM	> 100 µM	35.6 µM	> 100 µM	59.3 µM	> 100 µM	4.73 µM	29.6 µM	35.3 µM	> 100 µM	13.9 µM	63.1 µM	3 µM	15.1 µM
COc1cc2nc(-c3ccc(Cl)cc3)cc(OCCCN3CCC(O)CC3)c2cc1OC	2.43 µM	10.4 µM	1.44 µM	11.3 µM	1.8 µM	4.54 µM	2.83 µM	15 µM	0.925 µM	14.8 µM	1.16 µM	15.6 µM	1.27 µM	2.56 µM	3.19 µM	16.9 µM	2.06 µM	4.56 µM	1.9 µM	4.04 µM
